The subject of one data set is Bacillus subtilis. The data set is described as follows: Antibacterial activity against Bacillus subtilis CCM 2216 at 50 ug/disk. Set-up: unit not given here. The class given is functional.
In another data set the test system is Artemia salina. Nature of the data set: Toxicity to Artemia salina assessed as mortality after 24 hrs. It is filed as organism-based. The settings on record: in vivo.
In the next data set the test system is Saccharomyces cerevisiae. Nature of the data set: Antifungal activity against Saccharomyces cerevisiae at 50 ug/disk. It is filed as functional.
The next data set deals with Staphylococcus aureus. Nature of the data set: Antibacterial activity against Staphylococcus aureus CCM 2551 at 50 ug/disk. The class given is functional. The settings on record: read-out: Diameter of inhibition zone. Set-up: unit not given here.
In another data set the test system is Escherichia coli. Nature of the data set: Antibacterial activity against Escherichia coli at 50 ug/disk. It is filed as functional.
[1] abbreviates: read-out: Diameter of inhibition zone.

On to `CCCCCCCCCC[C@H](C)/C=C(C)/C=C/C(=O)OC`, for which the zone of inhibition at 50 µg/disc with Bacillus subtilis (setting [1]) was determined as 81; in the data set on Saccharomyces cerevisiae (setting [1]) it was 0 mm; in the data set on Staphylococcus aureus, 56.7; with Escherichia coli (setting [1]), 0 mm. For the same compound, the MLD in the data set with Artemia salina was found to be 4.9 µg/mL.

Take `C=C(CC/C=C/C=C/CC(C)C)C[C@@H](C)C/C(C)=C/C(=O)OC`: the zone of inhibition at 50 µg/disc in the data set on Bacillus subtilis (setting [1]) was found to be 74.9; in the data set on Saccharomyces cerevisiae (setting [1]) it was 0 mm; with Staphylococcus aureus, 84.1; in the data set on Escherichia coli (setting [1]), 0 mm. Also, the MLD in the data set on Artemia salina came out at 1.7 µg/mL.

Turning to `CC[C@H](C)/C=C/C(C)=C/C[C@H](C)/C=C/C=C/C(=O)OC`, in the data set on Artemia salina, the MLD came to 10.2 µg/mL. For the same compound, the zone of inhibition at 50 µg/disc with Saccharomyces cerevisiae (setting [1]) is 0 mm; in the data set on Staphylococcus aureus, 49; with Escherichia coli (setting [1]), 0 mm.

For the compound `C=C/C(C)=C/C[C@H](C)/C=C(C)/C=C(C)\C=C\C=C\C(=O)OC`, the zone of inhibition at 50 µg/disc in the data set on Bacillus subtilis (setting [1]) was 89; in the data set on Saccharomyces cerevisiae (setting [1]), 0 mm; with Staphylococcus aureus it was 62.4; in the data set on Escherichia coli (setting [1]) it was 0 mm. The MLD with Artemia salina amounted to 1.1 µg/mL.

As for `CC[C@@H](C)CC/C=C/C(C)=C/[C@H](C)C/C=C/C=C/C(=O)OC`, the zone of inhibition at 50 µg/disc in the data set with Bacillus subtilis (read-out: IZ) is 78.1; with Saccharomyces cerevisiae (read-out: IZ) it was 0 mm; with Escherichia coli (read-out: IZ) it was 0 mm. Further, the MLD with Artemia salina is 5 µg/mL.

The values above are taken from ChEMBL document CHEMBL1148137, “Multibranched polyunsaturated and very-long-chain fatty acids of freshwater Israeli sponges” (J Nat Prod, 2002).
